Results taken from US10087165B2, “Fluoroquinolones and use thereof to treat bacterial infections” (UNIVERSITÉ PIERRE ET MARIE CURIE—PARIS 6 (UPMC), priority 2014, dated 2018).
≈ marks a conversion by molar mass, not a printed value. Like-named read-outs stand apart in the source and are kept apart here.

What was measured:
[1] = format: physicochemical
Protocol: A solubility assay was performed on both Quin 18 and Quin 19 in appropriated vehicles for per os injection into mice to obtain a fine suspension at maximal concentration (MC) of each compound. The solubility of each compound in each vehicle was evaluated by observation of potential precipitate.

[2] = target: M. tuberculosis DNA gyrase (Mycobacterium tuberculosis, UniProt P9WG45+P9WG47); test: biochemical
[3] = Acute toxicity in healthy female CD-1 mice after a single oral treatment; format: in vivo
Protocol: The aim of this study was to evaluate the acute toxicity of two new compounds (Quin 18 and Quin 19) in healthy female CD-1 after a single oral treatment at D0.
Toxicity of treatment was evaluated by monitoring of animals (general signs of pharmacologic and toxicity effects, morbidity, mortality and evident signs of toxicity, as well as twice-weekly monitoring for clinical signs and body weight) until the end of the experiment (D14). At the end of the experiment, animals were sacrificed and macroscopic autopsy was performed.
Mice of each group were administered by per os (PO) injection at 10 ml/kg according to the standard operating procedure No. TEC-078. The recommended volume for per os (PO) administration in mice is 10 ml/kg.
Morbidity, mortality and evident signs of toxicity of mice were considered daily from D0 until the end of the experiment (D14 or D15).
Monitoring of mice for detailed behavioral and clinical observations was performed twice a week from D0 until the end of the experiment (D14 or D15) according to the standard operating procedures No. TEC-192.
Body weight of mice was monitored at D1, D2 and then twice a week until the end of the experiment (D14 or D15) according to the standard operating procedures No. TEC-108. Weight loss was assessed against the starting weight of each mouse at D0.
During the course of the experiment, animals were sacrificed if any of the following occurs: • Signs of suffering (cachexia, weakening, difficulty to move or to eat), • Compound toxicity (hunching, convulsions), • 25% body weight loss on any day. Sacrifice of Animals
At D14 or D15, animals were be sacrificed by CO2 inhalation and a macroscopic autopsy was performed.

[4] = tested on: M. tuberculosis H37Rv strain; test: Minimal effective dosage in the murine TB model; format: in vivo, Balb/C/J female mice; parameters: Mice weight: unit not given here; details: for Mice weight / Spleen weight / Survival: No. death: Gavage; for Survival: No. death: 10 mice
Protocol: Four-week-old Balb/C/J female mice were infected intravenously with 10^6 CFU of M. tuberculosis H37Rv strain. On the day following the infection (D1), 10 mice were sacrificed to determine the exact baseline values of spleen weight and CFU counts in the lungs. The remaining mice were allocated to the following treatment groups: an untreated negative control group for survival monitoring, a positive control group treated for 1 month with isoniazid (INH) 25 mg/kg/d, […] test groups were treated with Quin18 and Quin19 at increasing dosages (25 mg/kg/d; 50 mg/kg/d; 100 mg/kg/d; 150 mg/kg/d) given by oral gavage, and two additional test groups were treated intravenously with Quin18 25 mg/kg/d and 100 mg/kg/d. All the groups contained 10 mice and were treated from D1 to D28, 5 days a week. The parameters used for assessing the severity of infection and the effectiveness of treatments were survival rate, spleen weight, gross lung lesions and CFU counts in the lungs.
The minimal effective dosage was defined as the minimal dosage able to prevent mortality of the mice, spleen enlargement and the occurrence of gross lung lesions. CFU counts were considered to be a more precise way of determining the dose-ranging efficacy of Quin18 and Quin19.
Survival rates between groups were plotted on a Kaplan-Meier curve and compared using the log-rank test.

M. tuberculosis H37Rv = test: microbe, parasite or virus in culture; format: cell-based; details: for MIC: Mycobacterium tuberculosis

Sequence of M. tuberculosis DNA gyrase (P9WG47 whole entry): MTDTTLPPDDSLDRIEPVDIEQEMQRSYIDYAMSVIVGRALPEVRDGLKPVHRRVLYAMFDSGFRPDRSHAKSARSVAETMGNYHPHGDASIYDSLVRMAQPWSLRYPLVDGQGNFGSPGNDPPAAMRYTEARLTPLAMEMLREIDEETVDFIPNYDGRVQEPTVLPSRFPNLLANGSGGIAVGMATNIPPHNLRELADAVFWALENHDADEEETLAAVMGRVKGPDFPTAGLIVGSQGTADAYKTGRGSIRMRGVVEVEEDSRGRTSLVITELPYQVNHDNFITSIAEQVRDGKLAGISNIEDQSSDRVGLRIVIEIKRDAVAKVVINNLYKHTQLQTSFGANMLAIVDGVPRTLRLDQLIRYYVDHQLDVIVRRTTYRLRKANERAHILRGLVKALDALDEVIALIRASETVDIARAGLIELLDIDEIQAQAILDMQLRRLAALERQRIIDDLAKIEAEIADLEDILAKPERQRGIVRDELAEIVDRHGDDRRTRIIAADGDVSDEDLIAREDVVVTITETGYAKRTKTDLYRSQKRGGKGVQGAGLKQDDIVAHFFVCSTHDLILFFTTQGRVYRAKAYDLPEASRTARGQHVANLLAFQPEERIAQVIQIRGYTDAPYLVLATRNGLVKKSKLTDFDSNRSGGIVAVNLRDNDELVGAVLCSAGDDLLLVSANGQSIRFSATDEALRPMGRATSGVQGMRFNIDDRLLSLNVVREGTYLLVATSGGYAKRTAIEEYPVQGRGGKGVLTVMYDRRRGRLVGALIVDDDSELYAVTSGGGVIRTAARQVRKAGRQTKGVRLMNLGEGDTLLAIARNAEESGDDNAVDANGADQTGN
Sequence of M. tuberculosis DNA gyrase (P9WG45 whole entry): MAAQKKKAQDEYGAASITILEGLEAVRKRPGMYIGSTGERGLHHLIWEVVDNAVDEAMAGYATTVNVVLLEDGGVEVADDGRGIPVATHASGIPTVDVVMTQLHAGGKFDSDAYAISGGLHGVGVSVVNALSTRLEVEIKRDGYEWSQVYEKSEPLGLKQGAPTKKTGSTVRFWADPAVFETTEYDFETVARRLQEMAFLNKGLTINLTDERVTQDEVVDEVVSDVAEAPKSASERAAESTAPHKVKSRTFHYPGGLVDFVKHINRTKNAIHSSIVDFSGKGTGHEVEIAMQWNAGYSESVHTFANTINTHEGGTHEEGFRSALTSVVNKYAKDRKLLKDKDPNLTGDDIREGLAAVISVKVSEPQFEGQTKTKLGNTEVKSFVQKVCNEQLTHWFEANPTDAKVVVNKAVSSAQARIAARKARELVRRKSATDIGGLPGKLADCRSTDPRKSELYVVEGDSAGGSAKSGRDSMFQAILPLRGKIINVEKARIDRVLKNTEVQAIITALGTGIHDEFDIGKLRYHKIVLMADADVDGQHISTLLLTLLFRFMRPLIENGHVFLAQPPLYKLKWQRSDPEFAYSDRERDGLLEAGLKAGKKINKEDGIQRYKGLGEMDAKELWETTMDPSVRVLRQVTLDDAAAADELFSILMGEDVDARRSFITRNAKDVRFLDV

## CCCCCCCCCCN1CCN(c2c(F)cc3c(=O)c(C(=O)O)cn(C4CC4)c3c2OC)CC1 [Quin 19, 1-cyclopropyl-7-(4-decylpiperazin-1-yl)-6-fluoro-8-methoxy-4-oxo-1,4-dihydroquinoline-3-carboxylic acid]
[1]
  Excipient allowing the best solubilisation: corn oil
[2]
  IC50: 150 µM
[3]; Group B1: 100 mg/kg PO Q1Dx1
  Loss of body weight (in words): did not exhibited any loss of body weight
[3]; Group B1: 100 mg/kg PO Q1Dx1, corn oil, with sonication
  Tolerance (in words): well tolerated
[3]; Group B1: 100 mg/kg PO Q1Dx1, with sonication, D1
  Mean body weight (MBW): 29.73 ± 0.83 g
[3]; Group B1: 100 mg/kg PO Q1Dx1, with sonication, D2
  Mean body weight (MBW): 29.9 ± 0.2 g
[3]; Group B1: 100 mg/kg PO Q1Dx1, with sonication, D3
  Mean body weight (MBW): 30.23 ± 0.4 g
[3]; Group B1: 100 mg/kg PO Q1Dx1, with sonication, D4
  Mean body weight (MBW): 30.5 ± 0.98 g
[3]; Group B1: 100 mg/kg PO Q1Dx1, with sonication, D7
  Mean body weight (MBW): 31.2 ± 0.1 g
[3]; Group B1: 100 mg/kg PO Q1Dx1, with sonication, D11
  Mean body weight (MBW): 32.17 ± 1.36 g
[3]; Group B1: 100 mg/kg PO Q1Dx1, with sonication, D14
  Mean body weight (MBW): 31.4 ± 0.44 g
[3]; Group B1: 100 mg/kg PO Q1Dx1, *one mouse had air bubble in the caecum
  Macroscopic autopsy: Observations: NTR*
[3]; Group B1: corn oil, 10 mg/ml with sonication, 100 mg/kg PO Q1Dx1, D0, 100 mg/kg
  Mean body weight (MBW): 31.67 ± 2.25 g
[3]; Group B2: 200 mg/kg PO Q1Dx1
  Loss of body weight (in words): did not exhibited any loss of body weight
[3]; Group B2: 200 mg/kg PO Q1Dx1, corn oil, with sonication
  Tolerance (in words): well tolerated
[3]; Group B2: 200 mg/kg PO Q1Dx1, with sonication, D1
  Mean body weight (MBW): 30.97 ± 0.4 g
[3]; Group B2: 200 mg/kg PO Q1Dx1, with sonication, D2
  Mean body weight (MBW): 30.93 ± 0.25 g
[3]; Group B2: 200 mg/kg PO Q1Dx1, with sonication, D3
  Mean body weight (MBW): 30.3 ± 0.85 g
[3]; Group B2: 200 mg/kg PO Q1Dx1, with sonication, D7
  Mean body weight (MBW): 31.6 ± 1.97 g
[3]; Group B2: 200 mg/kg PO Q1Dx1, with sonication, D10
  Mean body weight (MBW): 32.1 ± 3.2 g
[3]; Group B2: 200 mg/kg PO Q1Dx1, with sonication, D14
  Mean body weight (MBW): 31.9 ± 1.15 g
[3]; Group B2: 200 mg/kg PO Q1Dx1, sacrifice at end of study
  Macroscopic autopsy: Observations: NTR
[3]; Group B2: corn oil, 20 mg/ml with sonication, 200 mg/kg PO Q1Dx1, D0, 200 mg/kg
  Mean body weight (MBW): 30.67 ± 0.21 g
[3]; Group B3: 200 mg/kg PO Q1Dx1
  Loss of body weight (in words): did not exhibited any loss of body weight
[3]; Group B3: 200 mg/kg PO Q1Dx1, corn oil, without sonication
  Tolerance (in words): well tolerated
[3]; Group B3: 200 mg/kg PO Q1Dx1, without sonication, D1
  Mean body weight (MBW): 32.73 ± 1.46 g
[3]; Group B3: 200 mg/kg PO Q1Dx1, without sonication, D2
  Mean body weight (MBW): 32.5 ± 0.62 g
[3]; Group B3: 200 mg/kg PO Q1Dx1, without sonication, D4
  Mean body weight (MBW): 31.73 ± 0.9 g
[3]; Group B3: 200 mg/kg PO Q1Dx1, without sonication, D7
  Mean body weight (MBW): 32.2 ± 0.5 g
[3]; Group B3: 200 mg/kg PO Q1Dx1, without sonication, D11
  Mean body weight (MBW): 34.1 ± 1.51 g
[3]; Group B3: 200 mg/kg PO Q1Dx1, without sonication, D15
  Mean body weight (MBW): 35.43 ± 1.99 g
[3]; Group B3: 200 mg/kg PO Q1Dx1, sacrifice at end of study
  Macroscopic autopsy: Observations: NTR
[3]; Group B3: corn oil, 20 mg/ml without sonication, 200 mg/kg PO Q1Dx1, D0, 200 mg/kg
  Mean body weight (MBW): 33.6 ± 2.11 g
[3]; Group B4: 400 mg/kg PO 2Q1Dx1
  Loss of body weight (in words): did not exhibited any loss of body weight
[3]; Group B4: 400 mg/kg PO 2Q1Dx1, corn oil, without sonication
  Tolerance (in words): well tolerated
[3]; Group B4: 400 mg/kg PO 2Q1Dx1, without sonication, D1
  Mean body weight (MBW): 30.47 ± 2.2 g
[3]; Group B4: 400 mg/kg PO 2Q1Dx1, without sonication, D2
  Mean body weight (MBW): 30.47 ± 1.3 g
[3]; Group B4: 400 mg/kg PO 2Q1Dx1, without sonication, D5
  Mean body weight (MBW): 31.03 ± 1.55 g
[3]; Group B4: 400 mg/kg PO 2Q1Dx1, without sonication, D9
  Mean body weight (MBW): 31.77 ± 2.32 g
[3]; Group B4: 400 mg/kg PO 2Q1Dx1, without sonication, D13
  Mean body weight (MBW): 31.7 ± 1.18 g
[3]; Group B4: 400 mg/kg PO 2Q1Dx1, without sonication, D14
  Mean body weight (MBW): 32.53 ± 1 g
[3]; Group B4: 400 mg/kg PO 2Q1Dx1, sacrifice at end of study
  Macroscopic autopsy: Observations: NTR
[3]; Group B4: corn oil, 20 mg/ml without sonication, 400 mg/kg PO 2Q1Dx1 (2 hours between the 2 injections), D0, 400 mg/kg
  Mean body weight (MBW): 31.03 ± 1.86 g
[3]; all treated groups
  Autopsy, macroscopic observations (in words): No particular sign was observed
[3]; in corn oil, PO, female mice
  Dose up to which well tolerated (maximal solubility): up to 400 mg/kg
[3]; mice
  Signs of toxicity at the dose levels tested (in words): no signs of toxicity
[4]; 25 mg/kg/j
  Mice weight: 19.3 ± 2.6
  Spleen weight: 332 ± 141.1 mg
[4]; 25 mg/kg/j, D1 to D28, 5 days a week
  Survival: No. death: 1
[4]; 50 mg/kg/j
  Mice weight: 18 ± 3.4
  Spleen weight: 305.6 ± 181.5 mg
  Survival: No. death: 2
[4]; 100 mg/kg/j
  Mice weight: 20.2 ± 1.3
  Spleen weight: 253 ± 127.2 mg
  Survival: No. death: 0
[4]; 150 mg/kg/j
  Mice weight: 20.7 ± 0.8
  Spleen weight: 222 ± 106.2 mg
  Survival: No. death: 0
[4]; given orally
  Efficacy in a mouse model of tuberculosis (in words): outstanding efficacy
[4]; whatever the dosage (25, 50, 100 and 150 mg/kg/d) and the administration route
  Survival compared with untreated group (in words): statistically superior to untreated group
M. tuberculosis H37Rv; H37Rv
  antibacterial activity against wild-type M. tuberculosis strain (in words): high antibacterial activity
M. tuberculosis H37Rv; H37RV, Table 3, read-out: MIC M. tuberculosis H37Rv
  MIC: < 0.12 µM
M. tuberculosis H37Rv; H37Rv, Table 2, read-out: MIC (M. tuberculosis) WT
  MIC: 0.25 µM (≈ 0.125 µg/mL)
